Assay results from patent US11787762B2, “Tetralin and tetrahydroquinoline compounds as inhibitors of HIF-2alpha” (ARCUS BIOSCIENCES, INC., priority 2020, dated 2023).

How the values were obtained:
[1] = biological target: T1, Histidine tagged HIF-2α protein containing PAS-B domain (240-350) (Homo sapiens, UniProt Q99814); experiment: HIF-2α Scintillation Proximity Assay (SPA) binding assay; details: 50 nM HIF-2α protein, 25 nM 3H-tracer
T1 construct: HIF-2α protein containing PAS-B domain (240-350); made in house
Description: HIF-2α Scintillation Proximity Assay (SPA) Binding Assay:
Tritium labeled compound N-(3-chlorophenyl)-4-nitro-2,1,3-benzoxadiazol-5-amine was obtained from American Radiolabeled Chemicals Inc. and copper chelate PVT SPA beads were from PerkinElmer (Cat #RPNQ0095). Histidine tagged HIF-2α protein containing PAS-B domain (240-350) was prepared and purified in house.
Compounds solubilized in DMSO were dispensed into a white 384-well polystyrene non-binding flat clear bottom plate (Greiner Bio-One, Cat #781903) using an HP D300 dispenser. Ten microliters of HIS-tagged HIF-2α protein in buffer (25 mM Tris-HCl, pH 7.4, 150 mM NaCl, 0.15% BSA and 0.001% Tween 20) was added to the compound wells and allowed to incubate for 1 hour at room temperature. Ten microliters of SPA bead mix were added to the wells and incubated for an additional 45 minutes, followed by 10 ul of ^3H-tracer solution. Final assay conditions comprised 50 nM HIF-2α protein, 25 nM radiolabeled tracer and 3 ug beads per well with compounds in 2% DMSO. The plate was read using a MicroBeta Microplate Counter (PerkinElmer) for luminescence detection. The IC50 values of the test compounds were determined from compound dose response curves fitted using a standard four parameter fit equation and are reported in Table 1, Table 2, and Table 3.

HIF-2α = biological target: T2, HIF-2α (Homo sapiens, UniProt Q99814); experiment: HIF-2α luciferase reporter assay in HIF-Luc-786-O cells; type: cell-based
T2 construct: host or cells: 786-O cells stably transduced with Cignal Lenti HIF Luc Reporter (only the reporter was introduced, not HIF-2α)
How it was run: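 Luminescence (ONE-Glo) read after 20 h compound incubation, top concentration 50 uM, 1% DMSO, 20,000 HIF-Luc-786-O cells per well. Activity scaled between DMSO maximum and no-cell baseline; four-parameter dose-response fits yielded IC50.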

T1 sequence (Q99814 240-350): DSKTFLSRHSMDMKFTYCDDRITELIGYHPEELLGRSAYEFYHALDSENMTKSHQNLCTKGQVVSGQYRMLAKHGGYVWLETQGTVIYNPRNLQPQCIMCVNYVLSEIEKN
T2 sequence (Q99814 whole entry): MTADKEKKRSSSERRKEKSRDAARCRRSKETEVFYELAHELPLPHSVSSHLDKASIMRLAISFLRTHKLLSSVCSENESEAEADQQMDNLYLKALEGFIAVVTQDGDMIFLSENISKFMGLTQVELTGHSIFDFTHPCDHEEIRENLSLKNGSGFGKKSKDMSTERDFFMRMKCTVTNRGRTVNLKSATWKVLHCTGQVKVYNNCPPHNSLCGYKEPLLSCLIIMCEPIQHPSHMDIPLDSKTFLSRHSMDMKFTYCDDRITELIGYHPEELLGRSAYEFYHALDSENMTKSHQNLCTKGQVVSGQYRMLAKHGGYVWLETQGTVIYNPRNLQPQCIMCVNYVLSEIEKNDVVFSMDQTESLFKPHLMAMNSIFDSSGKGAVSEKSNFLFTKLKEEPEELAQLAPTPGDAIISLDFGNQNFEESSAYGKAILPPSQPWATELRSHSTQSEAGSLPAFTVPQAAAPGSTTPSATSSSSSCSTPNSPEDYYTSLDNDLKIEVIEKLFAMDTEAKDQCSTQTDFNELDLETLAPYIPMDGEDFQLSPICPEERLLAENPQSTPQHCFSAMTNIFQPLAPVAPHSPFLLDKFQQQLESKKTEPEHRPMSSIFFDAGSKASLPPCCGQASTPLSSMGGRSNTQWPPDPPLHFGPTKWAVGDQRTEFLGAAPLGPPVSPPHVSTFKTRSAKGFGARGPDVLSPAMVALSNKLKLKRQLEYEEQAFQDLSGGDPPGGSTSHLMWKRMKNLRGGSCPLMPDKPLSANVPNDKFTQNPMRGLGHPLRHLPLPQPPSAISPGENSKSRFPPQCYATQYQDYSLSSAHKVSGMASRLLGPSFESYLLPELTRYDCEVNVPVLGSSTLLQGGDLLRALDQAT

SMILES	IC50 ([1]; Table 1) [nM]	IC50 (HIF-2α; Table 1, 20 hours incubation) [nM]	other results
N#Cc1cc(F)cc2c1[C@@H](c1ccc(C(F)(F)F)c3c1OC(F)(F)[C@H]3O)CCC2 [Example 91]	< 100	< 100	–
O=[N+]([O-])c1cc(C(F)(F)F)ccc1N1CCCc2cc(F)cc(F)c21 [Example 24, 6,8-difluoro-1-[2-nitro-4-(trifluoromethyl)phenyl]-1,2,3,4-tetrahydroquinoline]	> 1000	> 1000	–
O=S(=O)(c1ccc(N2CCCc3cc(F)cc(F)c32)c2c1[C@H](O)[C@@H](F)C2)C(F)(F)F [Example 54]	> 1000	> 1000	–
O=S(=O)(c1ccc([C@H]2CCNc3cc(F)cc(F)c32)c2c1[C@H](O)[C@H](F)C2)C(F)(F)F [Example 102]	> 1000	> 1000	–
CS(=O)(=O)c1ccc([C@H]2CC[C@H](F)c3cc(F)cc(C#N)c32)c2c1[C@H](O)[C@H](F)C2 [Example 134, (5S,8R)-3,5-Difluoro-8-[(1S,2R)-2-fluoro-1-hydroxy-7-methylsulfonyl-2,3-dihydro-1H-inden-4-yl]-5,6,7,8-tetrahydronaphthalene-1-carbonitrile]	–	–	IC50 ([1]; Table 2): < 100 nM; IC50 (HIF-2α; Table 2, 20 hours incubation): < 100 nM
N#Cc1cc(C(F)(F)F)ncc1N1CCCc2cc(F)cc(F)c21 [Example 86]	> 1000	> 1000	–
Cc1c(F)ccc2c1N(c1ccc(S(=O)(=O)C(F)(F)F)cc1[N+](=O)[O-])CCC2 [Example 46]	> 1000	> 1000	–
N#Cc1cc(F)cc2c1N(c1ccc(C(F)(F)F)c(Cl)c1C#N)CCC2 [Example 29]	100 to 1000	100 to 1000	–
O=S(=O)(c1ccc(N2CCC(CO)c3cc(F)cc(F)c32)c2c1[C@H](O)[C@H](F)C2)C(F)(F)F (stereo partly drawn) [Example 27]	100 to 1000	100 to 1000	–
CC1(O)CCN(c2ccc(C(F)(F)F)c(F)c2C#N)c2c(C#N)cc(F)cc21 (stereo not drawn) [Example 120]	100 to 1000	100 to 1000	–
CS(=O)(=O)c1ccc([C@@H]2CCCc3cc(F)cc(F)c32)c2c1[C@H](O)[C@H](F)C2 [Example 3, (1S,2R)-4-[(1S)-6,8-difluoro-1,2,3,4-tetrahydronaphthalen-1-yl]-2-fluoro-7-methanesulfonyl-2,3-dihydro-1H-inden-1-ol]	> 1000	> 1000	–
CS(=O)(=O)c1ccc(N2CCCc3cc(F)cc(C#N)c32)c2c1[C@H](O)[C@H](F)C2 [Example 41]	100 to 1000	> 1000	–
Cc1c(-c2ccc([C@H]3CC[C@H](F)c4cc(F)cc(C#N)c43)c3c2[C@H](O)C(F)(F)C3)cnn1C [Example 166, (5S,8R)-8-[(1S)-7-(1,5-dimethyl-1H-pyrazol-4-yl)-2,2-difluoro-1-hydroxy-2,3-dihydro-1H-inden-4-yl]-3,5-difluoro-5,6,7,8-tetrahydronaphthalene-1-carbonitrile]	–	–	IC50 ([1]; Table 3): < 100 nM; IC50 (HIF-2α; Table 3, 20 hours incubation): < 100 nM
COc1ccc2c(c1)N(c1ccc(S(=O)(=O)C(F)(F)F)cc1[N+](=O)[O-])CCC2 [Example 60]	> 1000	> 1000	–
CC(F)(F)c1ccc(N2CCC(F)(F)c3cc(F)cc(C#N)c32)c(C#N)c1F [Example 133, 1-[2-cyano-4-(1,1-difluoroethyl)-3-fluorophenyl]-4,4,6-trifluoro-1,2,3,4-tetrahydro-8-quinolinecarbonitrile]	–	–	IC50 ([1]; Table 2): < 100 nM; IC50 (HIF-2α; Table 2, 20 hours incubation): < 100 nM
O=S(=O)(c1ccc([C@H]2CCCc3cc(F)cc(F)c32)c2c1[C@H](O)[C@H](F)C2)C(F)(F)F [Example 2a, (1S,2R)-4-[R-6,8-difluoro-1,2,3,4-tetrahydronaphth-1-yl]-2-fluoro-7-(trifluoromethylsulfonyl)-1-indanol]	< 100	< 100	–
Cc1c(N2CCC(F)(F)c3cc(F)cc(C#N)c32)cnc(C(C)(F)F)c1F [Example 126, 1-[6-(1,1-Difluoroethyl)-5-fluoro-4-methylpyridin-3-yl]-4,4,6-trifluoro-2,3-dihydroquinoline-8-carbonitrile]	–	–	IC50 ([1]; Table 2): < 100 nM; IC50 (HIF-2α; Table 2, 20 hours incubation): < 100 nM

SMILES	IC50 ([1]; Table 1) [nM]	IC50 (HIF-2α; Table 1, 20 hours incubation) [nM]	other results
O=S(=O)(c1ccc([C@@H]2c3c(F)cc(F)cc3CC[C@@H]2O)c2c1[C@H](O)[C@H](F)C2)C(F)(F)F [Example 101]	100 to 1000	> 1000	–
O=S(=O)(c1ccc(N2C[C@@H](O)Cc3cc(F)cc(F)c32)c2c1[C@H](O)[C@H](F)C2)C(F)(F)F [Example 66]	> 1000	> 1000	–
CS(=O)(=O)c1ccc([C@H]2CCCc3cc(F)cc(C#N)c32)c2c1[C@H](O)[C@@H](F)CC2 [Example 94]	100 to 1000	100 to 1000	–
CS(=O)(=O)c1ccc([C@@H]2CCCc3cc(F)cc(C#N)c32)c2c1[C@H](O)[C@@H](F)CC2 [Example 105]	> 1000	> 1000	–
CC(O)(c1ccc(N2CCCc3cc(F)cc(F)c32)c([N+](=O)[O-])c1)C(F)(F)F (stereo not drawn) [Example 87]	> 1000	> 1000	–
Cc1c(N2CCC(F)(F)c3cc(F)cc(C#N)c32)cnc(C(F)(F)F)c1C#N [Example 128, 1-[5-cyano-4-methyl-6-(trifluoromethyl)pyridin-3-yl]-4,4,6-trifluoro-2,3-dihydroquinoline-8-carbonitrile]	–	–	IC50 ([1]; Table 2): < 100 nM; IC50 (HIF-2α; Table 2, 20 hours incubation): < 100 nM
O=S(=O)(c1ccc(N2CCCc3cc(F)cc(F)c32)c2c1C(O)CC2)C(F)(F)F (stereo not drawn) [Example 78]	> 1000	> 1000	–
N#Cc1c(S(N)(=O)=O)ccc(N2CCCc3cc(F)cc(F)c32)c1Cl [Example 75]	> 1000	> 1000	–
CS(=O)(=O)c1ccc([C@H]2CCC(F)(F)c3cc(F)cc(C#N)c32)c2c1[C@H](O)[C@H](F)C2 [Example 135, (8R)-3,5,5-Trifluoro-8-[(1S,2R)-2-fluoro-1-hydroxy-7-methylsulfonyl-2,3-dihydro-1H-inden-4-yl]-7,8-dihydro-6H-naphthalene-1-carbonitrile]	–	–	IC50 ([1]; Table 2): < 100 nM; IC50 (HIF-2α; Table 2, 20 hours incubation): < 100 nM
N#Cc1cc(F)cc2c1[C@@H](c1ccc(-c3cccnc3N)c3c1CC(F)(F)[C@H]3O)CC[C@@H]2F [Example 153, (5S,8R)-8-[(1S)-7-(2-aminopyridin-3-yl)-2,2-difluoro-1-hydroxy-1,3-dihydroinden-4-yl]-3,5-difluoro-5,6,7,8-tetrahydronaphthalene-1-carbonitrile]	–	–	IC50 ([1]; Table 3): < 100 nM; IC50 (HIF-2α; Table 3, 20 hours incubation): < 100 nM
O=S(=O)(c1ccc(N2CCCc3cc(F)cc(F)c32)c2c1C(F)C(F)(F)C2)C(F)(F)F (stereo not drawn) [Example 48]	100 to 1000	> 1000	–
N#Cc1ccc2c(c1)N(c1ccc(S(=O)(=O)C(F)(F)F)cc1[N+](=O)[O-])CCC2 [Example 65]	> 1000	> 1000	–
O=S(=O)(c1ccc([C@@H]2CCCc3cc(F)cc(F)c32)c2c1[C@H](O)[C@H](F)C2)C(F)(F)F [Example 2b, (1S,2R)-4-[S-6,8-difluoro-1,2,3,4-tetrahydronaphth-1-yl]-2-fluoro-7-(trifluoromethylsulfonyl)-1-indanol]	100 to 1000	100 to 1000	–
Fc1cc(F)c2c(c1)CCCN2c1ccc(C(F)(F)F)nc1 [Example 35]	> 1000	100 to 1000	–
CS(=O)(=O)c1ccc([C@H]2CCCc3cc(F)cc(F)c32)c2c1[C@H](O)[C@H](F)C2 (stereo in doubt) [Example 99]	100 to 1000	100 to 1000	–
CS(=O)(=O)c1ccc([C@H]2CCCc3cccc(C#N)c32)c2c1[C@H](O)[C@H](F)C2 [Example 97]	100 to 1000	100 to 1000	–
